Measurements taken from US8741944B2, “Anti-infective agents against intracellular pathogens” (priority 2007, dated 2014).
Like-named read-outs stand apart in the source and are kept apart here.

What was measured:
CCRF-CEM (Leukemia) = experiment: NCI DTP tumor cell line screen (SRB), CCRF-CEM
Protocol: (§1) For a typical screening experiment, cells are inoculated into 96 well microtiter plates in 100 μL at plating densities ranging from 5,000 to 40,000 cells/well depending on the doubling time of individual cell lines. After cell inoculation, the microtiter plates are incubated at 37° C., 5% CO2, 95% air and 100% relative humidity for 24 h prior to addition of experimental drugs.
(§2) After 24 h, two plates of each cell line are fixed in situ with TCA, to represent a measurement of the cell population for each cell line at the time of drug addition (Tz). Experimental drugs are solubilized in dimethyl sulfoxide at 400-fold the desired final maximum test concentration and stored frozen prior to use. At the time of drug addition, an aliquot of frozen concentrate is thawed and diluted to twice the desired final maximum test concentration with complete medium containing 50 μg/ml gentamicin. Additional four, 10-fold or ½ log serial dilutions are made to provide a total of five drug concentrations plus control. Aliquots of 100 μl of these different drug dilutions are added to the appropriate microtiter wells already containing 100 μl of medium, resulting in the required final drug concentrations.
(§3) Following drug addition, the plates are incubated for an additional 48 h at 37° C., 5% CO2, 95% air, and 100% relative humidity. For adherent cells, the assay is terminated by the addition of cold TCA. Cells are fixed in situ by the gentle addition of 50 μl of cold 50% (w/v) TCA (final concentration, 10% TCA) and incubated for 60 minutes at 4° C. The supernatant is discarded, and the plates are washed five times with tap water and air dried. Sulforhodamine B (SRB) solution (1001) at 0.4% (w/v) in 1% acetic acid is added to each well, and plates are incubated for 10 minutes at room temperature. After staining, unbound dye is removed by washing five times with 1% acetic acid and the plates are air dried. Bound stain is subsequently solubilized with 10 mM trizma base, and the absorbance is read on an automated plate reader at a wavelength of 515 nm. For suspension cells, the methodology is the same except that the assay is terminated by fixing settled cells at the bottom of the wells by gently adding 50 μl of 80% TCA (final concentration, 16% TCA). Using the seven absorbance measurements [time zero, (Tz), control growth, (C), and test growth in the presence of drug at the five concentration levels (Ti)], the percentage growth is calculated at each of the drug concentrations levels. Percentage growth inhibition is calculated as: [(Ti−Tz)/(C−Tz)]×100 for concentrations for which Ti>/=Tz [(Ti−Tz)/Tz]×100 for concentrations for which Ti<Tz
(§4) Three dose response parameters are calculated for each experimental agent. […] The drug concentration resulting in total growth inhibition (TGI) is calculated from Ti=Tz. […] Values are calculated for each of these three parameters if the level of activity is reached; however, if the effect is not reached or is exceeded, the value for that parameter is expressed as greater or less than the maximum or minimum concentration tested.

CAKI-1 (Renal Cancer) = experiment: NCI DTP tumor cell line screen (SRB), CAKI-1
Protocol: as §1, §2, §3, §4

K-562 (Leukemia) = experiment: NCI DTP tumor cell line screen (SRB), K-562
Protocol: as §1, §2, §3, §4

[1] = system: NCI-H460 (Non-Small Cell Lung Cancer)
Protocol: as §1, §2, §3, §4

[2] = system: NCI-H522 (Non-Small Cell Lung Cancer)
Protocol: as §1, §2, §3, §4

SK-MEL-28 (Melanoma) = experiment: NCI DTP tumor cell line screen (SRB), SK-MEL-28
Protocol: as §1, §2, §3, §4

DU-145 (Prostate Cancer) = experiment: NCI DTP tumor cell line screen (SRB), DU-145
Protocol: as §1, §2, §3, §4

SK-OV-3 (Ovarian Cancer) = experiment: NCI DTP tumor cell line screen (SRB), SK-OV-3
Protocol: as §1, §2, §3, §4

SMILES: NCC(=O)Nc1ccc(-n2nc(C(F)(F)F)cc2-c2ccc3c(ccc4ccccc43)c2)cc1 [Compound 70, 2-Amino-N-{4-[5-(2-phenanthrenyl)-3-(trifluoromethyl)-1H-pyrazol-1-yl]-phenyl}-acetamide]
- Mean Optical Densities (CCRF-CEM (Leukemia); Log10 Concentration −6.0): 0.523
- Percent Growth (CCRF-CEM (Leukemia); Log10 Concentration −6.0): 28%
- Mean Optical Densities (CCRF-CEM (Leukemia); Log10 Concentration −7.0): 0.946
- Percent Growth (CCRF-CEM (Leukemia); Log10 Concentration −7.0): 81%
- Percent Growth (CCRF-CEM (Leukemia); Log10 Concentration −8.0): 74%
- TGI (CAKI-1 (Renal Cancer)): 2.27E−06
- Mean Optical Densities (CAKI-1 (Renal Cancer); Log10 Concentration −4.0): 0.335
- Mean Optical Densities (CAKI-1 (Renal Cancer); Log10 Concentration −5.0): 0.147
- Percent Growth (CAKI-1 (Renal Cancer); Log10 Concentration −5.0): −75%
- Mean Optical Densities (CAKI-1 (Renal Cancer); Log10 Concentration −6.0): 1.126
- Percent Growth (CAKI-1 (Renal Cancer); Log10 Concentration −6.0): 42%
- Mean Optical Densities (CAKI-1 (Renal Cancer); Log10 Concentration −7.0): 1.802
- Percent Growth (CAKI-1 (Renal Cancer); Log10 Concentration −7.0): 95%
- Mean Optical Densities (CAKI-1 (Renal Cancer); Log10 Concentration −8.0): 1.692
- Percent Growth (CAKI-1 (Renal Cancer); Log10 Concentration −8.0): 87%
- TGI (K-562 (Leukemia)): 3.34E−06
- Mean Optical Densities (K-562 (Leukemia); Log10 Concentration −4.0): 0.247
- Mean Optical Densities (K-562 (Leukemia); Log10 Concentration −5.0): 0.209
- Percent Growth (K-562 (Leukemia); Log10 Concentration −5.0): −30%
- Mean Optical Densities (K-562 (Leukemia); Log10 Concentration −6.0): 0.681
- Percent Growth (K-562 (Leukemia); Log10 Concentration −6.0): 33%
- Mean Optical Densities (K-562 (Leukemia); Log10 Concentration −7.0): 1.022
- Percent Growth (K-562 (Leukemia); Log10 Concentration −7.0): 62%
- Mean Optical Densities (K-562 (Leukemia); Log10 Concentration −8.0): 1.435
- Percent Growth (K-562 (Leukemia); Log10 Concentration −8.0): 97%
- TGI [1]: 2.64E−06
- Mean Optical Densities ([1]; Log10 Concentration −4.0): 0.213
- Mean Optical Densities ([1]; Log10 Concentration −5.0): 0.173
- Mean Optical Densities ([1]; Log10 Concentration −6.0): 0.830
- Percent Growth ([1]; Log10 Concentration −6.0): 34%
- Mean Optical Densities ([1]; Log10 Concentration −7.0): 1.499
- Percent Growth ([1]; Log10 Concentration −7.0): 77%
- Mean Optical Densities ([1]; Log10 Concentration −8.0): 1.799
- Percent Growth ([1]; Log10 Concentration −8.0): 97%
- TGI [2]: 3.94E−06
- Mean Optical Densities ([2]; Log10 Concentration −4.0): 0.486
- Mean Optical Densities ([2]; Log10 Concentration −5.0): 0.260
- Percent Growth ([2]; Log10 Concentration −5.0): −66%
- Mean Optical Densities ([2]; Log10 Concentration −6.0): 1.528
- Percent Growth ([2]; Log10 Concentration −6.0): 97%
- Mean Optical Densities ([2]; Log10 Concentration −7.0): 1.718
- Percent Growth ([2]; Log10 Concentration −7.0): 122%
- Mean Optical Densities ([2]; Log10 Concentration −8.0): 1.626
- Percent Growth ([2]; Log10 Concentration −8.0): 110%
- TGI (SK-MEL-28 (Melanoma)): 2.64E−06
- Mean Optical Densities (SK-MEL-28 (Melanoma); Log10 Concentration −4.0): 0.218
- Mean Optical Densities (SK-MEL-28 (Melanoma); Log10 Concentration −5.0): 0.071
- Percent Growth (SK-MEL-28 (Melanoma); Log10 Concentration −5.0): −87%
- Mean Optical Densities (SK-MEL-28 (Melanoma); Log10 Concentration −6.0): 1.130
- Percent Growth (SK-MEL-28 (Melanoma); Log10 Concentration −6.0): 63%
- Mean Optical Densities (SK-MEL-28 (Melanoma); Log10 Concentration −7.0): 1.320
- Percent Growth (SK-MEL-28 (Melanoma); Log10 Concentration −7.0): 83%
- Mean Optical Densities (SK-MEL-28 (Melanoma); Log10 Concentration −8.0): 1.426
- Percent Growth (SK-MEL-28 (Melanoma); Log10 Concentration −8.0): 94%
- TGI (DU-145 (Prostate Cancer)): 3.47E−06
- Mean Optical Densities (DU-145 (Prostate Cancer); Log10 Concentration −4.0): 0.132
- Mean Optical Densities (DU-145 (Prostate Cancer); Log10 Concentration −5.0): 0.078
- Percent Growth (DU-145 (Prostate Cancer); Log10 Concentration −5.0): −76%
- Mean Optical Densities (DU-145 (Prostate Cancer); Log10 Concentration −6.0): 0.895
- Percent Growth (DU-145 (Prostate Cancer); Log10 Concentration −6.0): 90%
- Mean Optical Densities (DU-145 (Prostate Cancer); Log10 Concentration −7.0): 1.018
- Percent Growth (DU-145 (Prostate Cancer); Log10 Concentration −7.0): 109%
- Mean Optical Densities (DU-145 (Prostate Cancer); Log10 Concentration −8.0): 0.993
- Percent Growth (DU-145 (Prostate Cancer); Log10 Concentration −8.0): 105%
- TGI (SK-OV-3 (Ovarian Cancer)): 2.96E−06
- Mean Optical Densities (SK-OV-3 (Ovarian Cancer); Log10 Concentration −4.0): 0.302
- Mean Optical Densities (SK-OV-3 (Ovarian Cancer); Log10 Concentration −5.0): 0.083
- Percent Growth (SK-OV-3 (Ovarian Cancer); Log10 Concentration −5.0): −79%
- Mean Optical Densities (SK-OV-3 (Ovarian Cancer); Log10 Concentration −6.0): 1.262
- Percent Growth (SK-OV-3 (Ovarian Cancer); Log10 Concentration −6.0): 71%
- Mean Optical Densities (SK-OV-3 (Ovarian Cancer); Log10 Concentration −7.0): 1.597
- Percent Growth (SK-OV-3 (Ovarian Cancer); Log10 Concentration −7.0): 98%
- Mean Optical Densities (SK-OV-3 (Ovarian Cancer); Log10 Concentration −8.0): 1.514
- Percent Growth (SK-OV-3 (Ovarian Cancer); Log10 Concentration −8.0): 91%
